# Reference: patent publication US5783703A, “Sulfur-containing compounds method for their use and prodction” (Lederle (Japan), Ltd., priority 1993, dated 1998)
# Legend:
# [1] = Storage stability of the crystal at room temperature; format: physicochemical; details: dehumidified state, one month
# Text: The 3-mercapto-1-(1,3-thiazolin-2-yl)azetidine hydrochloride (8) in the form of crystal obtained in the above Example 6 was left still in dehumidified state at a room temperature for one month.
# B. subtilis ATCC 6633 = assay: Antibacterial test, agar plate dilution method (MIC), standard strains; format: cell-based; details: Bacillus subtilis, ATCC6633, MH agar, 37° C., 18 hours
# Protocol: (§1) The antibacterial activities were tested by an agar plate dilution method in accordance with the standard method of The Japanese Chemotherapy Society [Chemotherapy, Vol. 29, 76-79 (1981)].
# (§2) A Mueller-Hinton (MH) agar liquid medium of a test microorganism was cultured overnight at 37° C. and the resultant culture medium was diluted with a buffered saline gelatin (BSG) solution to contain approximately 10^6 cells of the test microorganisms per milliliter, and then the diluted solution was inoculated with a microplanter at the rate of approximately 5 microliters on a MH agar medium containing a test compound. This medium was then incubated at 37° C. for 18 hours. The minimum inhibitory concentration (MIC) is determined as a minimum concentration in which no test microorganism could grow. It is noted here that the test organisms used were all standard strains.
# E. aerogenes ATCC 13048 = assay: as above; format: cell-based; details: Klebsiella aerogenes, ATCC13048, MH agar, 37° C., 18 hours
# Protocol: as §1, §2
# E. cloacae 963 = assay: as above; format: cell-based; details: Enterobacter cloacae, MH agar, 37° C., 18 hours
# Protocol: as §1, §2
# E. coli K-12 C600 = assay: as above; format: cell-based; details: Escherichia coli, K12C600, MH agar, 37° C., 18 hours
# Protocol: as §1, §2
# E. coli NIHJ JC-2 = assay: as above; format: cell-based; details: Escherichia coli, NIHJJC2, MH agar, 37° C., 18 hours
# Protocol: as §1, §2
# K. pneumoniae PCI-602 = assay: as above; format: cell-based; details: Klebsiella pneumoniae, PCI602, MH agar, 37° C., 18 hours
# Protocol: as §1, §2
# M. luteus ATCC 9341 = assay: as above; format: cell-based; details: Micrococcus luteus, ATCC9341, MH agar, 37° C., 18 hours
# Protocol: as §1, §2
# M. morganii IFO 3848 = assay: as above; format: cell-based; details: Morganella morganii, IFO3848, MH agar, 37° C., 18 hours
# Protocol: as §1, §2
# P. mirabilis IFO 3849 = assay: as above; format: cell-based; details: Proteus mirabilis, IFO3849, MH agar, 37° C., 18 hours
# Protocol: as §1, §2
# P. rettgeri IFO 3850 = assay: as above; format: cell-based; details: Providencia rettgeri, IFO3850, MH agar, 37° C., 18 hours
# Protocol: as §1, §2
# P. vulgaris HX-19 = assay: as above; format: cell-based; details: Proteus vulgaris, HX19, MH agar, 37° C., 18 hours
# Protocol: as §1, §2
# P. vulgaris OX-19 = assay: as above; format: cell-based; details: Proteus vulgaris, OX19, MH agar, 37° C., 18 hours
# Protocol: as §1, §2
# S. aureus FDA209P JC-1 = assay: as above; format: cell-based; details: Staphylococcus aureus, MH agar, 37° C., 18 hours
# Protocol: as §1, §2
# S. aureus MS353 = assay: as above; format: cell-based; details: Staphylococcus aureus, MH agar, 37° C., 18 hours
# Protocol: as §1, §2
# S. aureus Terajima = assay: as above; format: cell-based; details: Staphylococcus aureus, MH agar, 37° C., 18 hours
# Protocol: as §1, §2
# S. enteritidis G14 = assay: as above; format: cell-based; details: Salmonella enterica, MH agar, 37° C., 18 hours
# Protocol: as §1, §2
# S. marcescens IAM 1184 = assay: as above; format: cell-based; details: Serratia marcescens, IAM1184, MH agar, 37° C., 18 hours
# Protocol: as §1, §2
# S. paratyphi 1015 = assay: as above; format: cell-based; details: Salmonella enterica, 18 h
# Protocol: as §1, §2
# S. pyogenes Cook = assay: as above; format: cell-based; details: Streptococcus pyogenes, MH agar, 37° C., 18 hours
# Protocol: as §1, §2
# S. schottmuelleri 8006 = assay: as above; format: cell-based; details: MH agar, 37° C., 18 hours
# Protocol: as §1, §2
# S. typhi 901 = assay: as above; format: cell-based; details: Salmonella enterica, 18 h
# Protocol: as §1, §2
# S. typhimurium 11D971 = assay: as above; format: cell-based; details: Salmonella enterica, MH agar, 37° C., 18 hours
# Protocol: as §1, §2
compound,measurement,setting,value
"Cl.SC1CN(C2=NCCS2)C1 [compound (8), 3-mercapto-1-(1,3-thiazolin-2-yl)azetidine hydrochloride]",purity after storage (storage stability),[1],did not change at all
"COCOC[C@@H]1CSC(N2CC(SC3=C(C(=O)O)N4C(=O)[C@H]([C@@H](C)O)[C@H]4[C@H]3C)C2)=N1 [Compound (31), (1R,5S,6S)-2-[1-((4R)-methoxymethyloxymethyl-1,3-thiazolin-2-yl)azetidin-3-yl]thio-6-[(R)-1-hydroxyethyl]-1-methyl-carbapen-2-em-3-carboxylic acid]",MIC,B. subtilis ATCC 6633,0.025 µg/mL
same,MIC,E. aerogenes ATCC 13048,0.39 µg/mL
same,MIC,E. cloacae 963,0.2 µg/mL
same,MIC,E. coli K-12 C600,0.2 µg/mL
same,MIC,E. coli NIHJ JC-2,0.05 µg/mL
same,MIC,K. pneumoniae PCI-602,0.013 µg/mL
same,MIC,M. luteus ATCC 9341,0.2 µg/mL
same,MIC,M. morganii IFO 3848,0.2 µg/mL
same,MIC,P. mirabilis IFO 3849,0.78 µg/mL
same,MIC,P. rettgeri IFO 3850,6.25 µg/mL
same,MIC,P. vulgaris HX-19,0.39 µg/mL
same,MIC,P. vulgaris OX-19,0.1 µg/mL
same,MIC,S. aureus FDA209P JC-1,0.05 µg/mL
same,MIC,S. aureus MS353,0.025 µg/mL
same,MIC,S. aureus Terajima,≤ 6 ng/mL
same,MIC,S. enteritidis G14,0.2 µg/mL
same,MIC,S. marcescens IAM 1184,0.39 µg/mL
same,MIC,S. paratyphi 1015,0.05 µg/mL
same,MIC,S. pyogenes Cook,≤ 6 ng/mL
same,MIC,S. schottmuelleri 8006,0.2 µg/mL
same,MIC,S. typhi 901,0.05 µg/mL
same,MIC,S. typhimurium 11D971,0.1 µg/mL
